Entries after “also recorded” stand apart in the source; their conditions may differ.
Experiments:
[1] = molecular target: FintCSP1-Lys26Ala (Frankliniella intonsa, UniProt A0A891LVF4, K26A); assay: Fluorescence (1-NPN) binding and competitive binding assay, FintCSP1 mutant
Experimental: (§1) The binding affinity of FintCSP1 and FoccCSP to the fluorescent probe N-phenyl-1-naphthylamine (1-NPN) was tested using a Spectramax M2 fluorescence spectrometer (Molecular Devices, USA) as reported previously. […] The 1-NPN/FintCSP1 or 1-NPN/FoccCSP mixture was excited at 280 nm, and the emission spectra were recorded at 415 nm. The binding constants (Kd) of FintCSP1 or FoccCSP to 1-NPN were calculated by Scatchard analysis using Prism 5 software (GraphPad, La Jolla, CA, USA). Assuming a protein activity of 100% and that the volatile compound binds to the protein in a 1:1 ratio at saturation, the dissociation constants (Ki) of FintCSP1 or FoccCSP for each ligand were calculated according to the IC50 (the concentration when the ligand replaces 50% of the probe) value of the volatile compounds. The Ki values were calculated according to the following equation: Ki = [IC50]/(1 + [1-NPN]/K1-NPN), where [1-NPN] is the free concentration of 1-NPN, and K1-NPN is the Kd of the 1-NPN/FintCSP1 or 1-NPN/FoccCSP.
(§2) To verify the key amino acids of FintCSP1 and FoccCSP that bind to cis-3-hexenal, six amino acid residues of FintCSP1 were mutated (Lys26Ala, Phe27Ala, Thr28Ala, Glu67Ala, Ser84Ala, and the negative control residue Val132Ala) and nine amino acid residues of FoccCSP were mutated (Lys26Ala, Phe27Ala, Thr28Ala, Thr29Ala, Tyr31Ala, Asp64Ala, Glu67Ala, Gln87Ala, and the negative control residue Val132Ala) with the Fast Mutagenesis System Kit (Transgen Biotech, Beijing, China) using the pET-30a/FintCSP1 and pET-30a/FoccCSP plasmid DNA as template, respectively. Specific primers were designed using Primer Premier 5.0 according to the instructions of the Fast Mutagenesis System Kit (S1 Table). After validation by sequencing, each recombinant variant protein was produced and purified as described above, and their binding affinity to cis-3-hexenal was measured as described above.

[2] = molecular target: FintCSP1-Thr28Ala (Frankliniella intonsa, UniProt A0A891LVF4, T28A); assay: as above
Experimental: as §1, §2

[3] = molecular target: FintCSP1-Phe27Ala (Frankliniella intonsa, UniProt A0A891LVF4, F27A); assay: as above
Experimental: as §1, §2

[4] = molecular target: FintCSP1-Glu67Ala (Frankliniella intonsa, UniProt A0A891LVF4, E67A); assay: as above
Experimental: as §1, §2

[5] = molecular target: FoccCSP-Asp64Ala (Frankliniella occidentalis, UniProt G4Y3X1, D64A); assay: Fluorescence (1-NPN) binding and competitive binding assay, FoccCSP mutant
Experimental: as §1, §2

[6] = molecular target: FoccCSP-Phe27Ala (Frankliniella occidentalis, UniProt G4Y3X1, F27A); assay: as above
Experimental: as §1, §2

[7] = molecular target: FoccCSP-Glu67Ala (Frankliniella occidentalis, UniProt G4Y3X1, E67A); assay: as above
Experimental: as §1, §2

[8] = molecular target: FoccCSP-Thr29Ala (Frankliniella occidentalis, UniProt G4Y3X1, T29A); assay: as above
Experimental: as §1, §2

[9] = molecular target: FoccCSP-Thr28Ala (Frankliniella occidentalis, UniProt G4Y3X1, T28A); assay: as above
Experimental: as §1, §2

[10] = molecular target: recombinant wild-type FintCSP1 (Frankliniella intonsa, UniProt A0A891LVF4); assay: Fluorescence (1-NPN) binding and competitive binding assay, wild-type FintCSP1
Experimental: (§3) FintCSP1 and FoccCSP DNA were released from pEASY-T1/FintCSP1 and pEASY-T1/FoccCSP, respectively, by restriction digestion with BamHI and XhoI and cloned into the pET-30a vector (Invitrogen). The resulting construct was transformed into Transetta (DE3) Escherichia coli competent cells (Transgen). The production of recombinant FintCSP1 and FoccCSP was induced by addition of isopropyl-β-D-1-thiogalactopyranoside (IPTG, 0.2 mM) at 15°C and purified by Ni ion affinity chromatography (Sangon Biotech, Shanghai, China). The target protein was verified by 15% SDS-PAGE, and its concentration was determined with a BCA protein assay kit (Thermo Scientific, Rockford, IL, USA). The recombinant purified protein was stored at −20°C until use.
as §1

[11] = molecular target: FoccCSP-Gln87Ala (Frankliniella occidentalis, UniProt G4Y3X1, Q87A); assay: Fluorescence (1-NPN) binding and competitive binding assay, FoccCSP mutant
Experimental: (§4) The binding affinity of FintCSP1 and FoccCSP to the fluorescent probe N-phenyl-1-naphthylamine (1-NPN) was tested using a Spectramax M2 fluorescence spectrometer (Molecular Devices, USA) as reported previously. Volatile compounds and 1-NPN were first dissolved to a concentration of 1 mM in HPLC-grade methanol and dissolved to their indicated final concentration (2–20 μM) to titrate 2 μM protein solutions resuspended in 50 mM Tris-HCl (pH 7.4). The 1-NPN/FintCSP1 or 1-NPN/FoccCSP mixture was excited at 280 nm, and the emission spectra were recorded at 415 nm. The binding constants (Kd) of FintCSP1 or FoccCSP to 1-NPN were calculated by Scatchard analysis using Prism 5 software (GraphPad, La Jolla, CA, USA). Assuming a protein activity of 100% and that the volatile compound binds to the protein in a 1:1 ratio at saturation, the dissociation constants (Ki) of FintCSP1 or FoccCSP for each ligand were calculated according to the IC50 (the concentration when the ligand replaces 50% of the probe) value of the volatile compounds. The Ki values were calculated according to the following equation: Ki = [IC50]/(1 + [1-NPN]/K1-NPN), where [1-NPN] is the free concentration of 1-NPN, and K1-NPN is the Kd of the 1-NPN/FintCSP1 or 1-NPN/FoccCSP.
as §2

[12] = molecular target: FoccCSP-Tyr31Ala (Frankliniella occidentalis, UniProt G4Y3X1, Y31A); assay: as above
Experimental: as §4, §2

[13] = molecular target: FoccCSP-Lys26Ala (Frankliniella occidentalis, UniProt G4Y3X1, K26A); assay: as above
Experimental: as §4, §2

[14] = molecular target: FintCSP1-Val132Ala (Frankliniella intonsa, UniProt A0A891LVF4, V132A); assay: Fluorescence (1-NPN) binding and competitive binding assay, FintCSP1 mutant (negative control residue)
Experimental: as §4
as §2, with “Specific primers were designed using Primer Premier 5.0 according to the instructions of the Fast Mutagenesis System Kit (S1 Table).” left out

[15] = molecular target: FintCSP1-Ser84Ala (Frankliniella intonsa, UniProt A0A891LVF4, S84A); assay: Fluorescence (1-NPN) binding and competitive binding assay, FintCSP1 mutant
Experimental: as §4
as §2, with “Specific primers were designed using Primer Premier 5.0 according to the instructions of the Fast Mutagenesis System Kit (S1 Table).” left out

[16] = molecular target: recombinant wild-type FoccCSP (Frankliniella occidentalis, UniProt G4Y3X1); assay: Fluorescence (1-NPN) binding and competitive binding assay, wild-type FoccCSP
Experimental: as §3, §4

[17] = molecular target: FoccCSP-Val132Ala (Frankliniella occidentalis, UniProt G4Y3X1, V132A); assay: Fluorescence (1-NPN) binding and competitive binding assay, FoccCSP mutant (negative control residue)
Experimental: as §4, §2

[18] = test system: F. intonsa antennae; assay: Electroantennogram (EAG) assay; parameters: species or system Frankliniella intonsa; conditions: excised F. intonsa antennae
Experimental: The FintCSP1, FintCSP2, FintOBP, FintOR, FoccCSP, and enhanced green fluorescent protein (EGFP) coding sequences were obtained from GenBank under accession numbers MT199111, MT211602, OK067245, MT211603, AEP27186.1, and U55761.1, respectively. Primers were designed using Primer Premier 5.0, and the T7 promoter sequence (5′-[…]-3′) was added to the 5′ end of each primer (S1 Table). DNA fragments containing T7 promoter sequences were amplified by PCR using pEASY-T1/target gene or pUC-EGFP (preserved in the laboratory) plasmid DNA as template. Then, a double-stranded RNA (dsRNA) was produced from each target gene using the HiScribe T7 Quick High Yield RNA Synthesis Kit (New England Biolabs) according to the manufacturer’s instructions. Six hundred 2-day-old female F. intonsa or two hundred 2-day-old female F. occidentalis adults were anesthetized using CO2 and microinjected with 40 nL (3 μg/μL) dsRNA (dsFintCSP1 dsFintCSP2, dsFintOBP, dsFintOR or dsFoccCSP or dsEGFP) using a CellTram Oil microinjector (Eppendorf, Hamburg, Germany). The injected thrips were kept on broad beans in an artificial climate incubator as described above and used in subsequent RNAi experiments. Three biological replicates were conducted for each treatment with each dsRNA.
At 24 h after dsRNA injection, the electrophysiological responses of F. intonsa antennae to six volatile components (i.e., m-cymene, cis-3-hexenal, (+)-2-carene, trans-2-hexenal, α-phellandrene, and α-humulene) or F. occidentalis antennae to cis-3-hexenal were recorded using EAG. Antennae of female adult thrips were cut off at the base, and the distal terminus was carefully removed. The tested compounds were dissolved in liquid paraffin, with pure liquid paraffin used as a negative control. An Ag-AgCl2 glass electrode and Kaissling electrode solution were used in the experiment according to Tian et al.. The base of the antenna was inserted into the glass capillary filled with electrode solution at the end of the reference electrode; the top of the antenna was connected to the glass capillary at the end of the recording electrode to ensure no bubbles in the glass capillary. After successful connection, the antennae were stimulated with each chemical in the following order: liquid paraffin, volatile compounds, and liquid paraffin. Stimulus time was 0.2 s with each stimulus at 40 s intervals. At least 10 antennae were tested for each volatile compound. The EAG values to volatile compounds were calculated using the following equation: absolute value of EAG reaction = reaction value of the tested sample—average value of two control measurements.

[19] = test system: F. intonsa; assay: Y-tube olfactometer preference test; assay type: in vivo, Frankliniella intonsa; conditions: volatile compound vs liquid paraffin control; n = 60
Experimental: F. intonsa and F. occidentalis preference tests of plant volatile cues were performed using a glass Y-tube olfactometer according to the method described by Wang et al. (2014) with minor modifications. A Y-shaped tube (1-cm inner diameter) consisted of a central tube (10 cm in length) and two arms (10 cm in length, offset by 60°) connected to two different glass odor bottles. One glass odor bottle was 50 cm in height, with a 10-cm inner diameter that contained pepper plants (14-day post-viral infection); the other glass odor bottle was 5 cm in height, with a 3-cm inner diameter for plant VOCs. The airflow in the olfactometer (200 mL/min) was filtered through activated carbon and calibrated using a flow meter at the end of each arm. To remove all visual cues, the Y-tube was positioned horizontally in a black airtight cubic box (90 cm × 60 cm × 40 cm). The tested odor sources (pepper plant VOCs) were enclosed in the odor bottles 5 min prior to each test to allow the odors to fill the arms. Thrips (2-day-old, starved for 1 h) were individually placed in the central tube and allowed to choose between the two arms. When the thrips had climbed over 2/3 of the side arm and stayed there for more than 30 s, it was considered to have made a selection. If the thrips had not made a choice after being placed in the straight arm for 5 min, the insect behaviour was scored as “no selection,” and it was not counted in the total data. The direction of the Y-tube arms and the silicone tubes were adjusted after five tested thrips to eliminate the influence of position. The Y-tube was replaced after 10 tested thrips to eliminate the possible influence of existing odors on thrips behaviour. Each treatment consisted of 20 thrips, with three replicates per treatment.
The FintCSP1, FintCSP2, FintOBP, FintOR, FoccCSP, and enhanced green fluorescent protein (EGFP) coding sequences were obtained from GenBank under accession numbers MT199111, MT211602, OK067245, MT211603, AEP27186.1, and U55761.1, respectively. Primers were designed using Primer Premier 5.0, and the T7 promoter sequence (5′-[…]-3′) was added to the 5′ end of each primer (S1 Table). DNA fragments containing T7 promoter sequences were amplified by PCR using pEASY-T1/target gene or pUC-EGFP (preserved in the laboratory) plasmid DNA as template. Then, a double-stranded RNA (dsRNA) was produced from each target gene using the HiScribe T7 Quick High Yield RNA Synthesis Kit (New England Biolabs) according to the manufacturer’s instructions. […]

recombinant wild-type FintCSP1, sequence (A0A891LVF4 entry or part of it): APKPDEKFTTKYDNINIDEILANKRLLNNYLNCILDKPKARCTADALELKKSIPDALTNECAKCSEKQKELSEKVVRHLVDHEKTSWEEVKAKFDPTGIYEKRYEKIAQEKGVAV
FoccCSP-Val132Ala, sequence (G4Y3X1 entry or part of it V132A): as the sequence (A0A891LVF4 entry or part of it) above, with D5E, I15V, A44N, A62M, V80A, D81E, H82K, T85E, Q109K, V113A counted along it
FintCSP1-Phe27Ala, sequence (A0A891LVF4 entry or part of it F27A): as the sequence (A0A891LVF4 entry or part of it) above, with F8A counted along it
FoccCSP-Glu67Ala, sequence (G4Y3X1 entry or part of it E67A): as the sequence (A0A891LVF4 entry or part of it) above, with D5E, I15V, A44N, E48A, A62M, V80A, D81E, H82K, T85E, Q109K counted along it
FoccCSP-Tyr31Ala, sequence (G4Y3X1 entry or part of it Y31A): as the sequence (A0A891LVF4 entry or part of it) above, with D5E, Y12A, I15V, A44N, A62M, V80A, D81E, H82K, T85E, Q109K counted along it
FoccCSP-Asp64Ala, sequence (G4Y3X1 entry or part of it D64A): as the sequence (A0A891LVF4 entry or part of it) above, with D5E, I15V, A44N, D45A, A62M, V80A, D81E, H82K, T85E, Q109K counted along it
FintCSP1-Lys26Ala, sequence (A0A891LVF4 entry or part of it K26A): as the sequence (A0A891LVF4 entry or part of it) above, with K7A counted along it
FoccCSP-Lys26Ala, sequence (G4Y3X1 entry or part of it K26A): as the sequence (A0A891LVF4 entry or part of it) above, with D5E, K7A, I15V, A44N, A62M, V80A, D81E, H82K, T85E, Q109K counted along it
FoccCSP-Thr28Ala, sequence (G4Y3X1 entry or part of it T28A): as the sequence (A0A891LVF4 entry or part of it) above, with D5E, T9A, I15V, A44N, A62M, V80A, D81E, H82K, T85E, Q109K counted along it
FintCSP1-Thr28Ala, sequence (A0A891LVF4 entry or part of it T28A): as the sequence (A0A891LVF4 entry or part of it) above, with T9A counted along it
FintCSP1-Ser84Ala, sequence (A0A891LVF4 entry or part of it S84A): as the sequence (A0A891LVF4 entry or part of it) above, with S65A counted along it
FoccCSP-Gln87Ala, sequence (G4Y3X1 entry or part of it Q87A): as the sequence (A0A891LVF4 entry or part of it) above, with D5E, I15V, A44N, A62M, Q68A, V80A, D81E, H82K, T85E, Q109K counted along it
FintCSP1-Val132Ala, sequence (A0A891LVF4 entry or part of it V132A): as the sequence (A0A891LVF4 entry or part of it) above, with V113A counted along it
FintCSP1-Glu67Ala, sequence (A0A891LVF4 entry or part of it E67A): as the sequence (A0A891LVF4 entry or part of it) above, with E48A counted along it
recombinant wild-type FoccCSP, sequence (G4Y3X1 entry or part of it): as the sequence (A0A891LVF4 entry or part of it) above, with D5E, I15V, A44N, A62M, V80A, D81E, H82K, T85E, Q109K counted along it
FoccCSP-Thr29Ala, sequence (G4Y3X1 entry or part of it T29A): as the sequence (A0A891LVF4 entry or part of it) above, with D5E, T10A, I15V, A44N, A62M, V80A, D81E, H82K, T85E, Q109K counted along it
FoccCSP-Phe27Ala, sequence (G4Y3X1 entry or part of it F27A): as the sequence (A0A891LVF4 entry or part of it) above, with D5E, F8A, I15V, A44N, A62M, V80A, D81E, H82K, T85E, Q109K counted along it

c1ccc(Nc2cccc3ccccc23)cc1 [1-NPN, N-phenyl-1-naphthylamine, reference compound]
Kd [1]: 3.3 ± 0.39 µM
Kd [2]: 3.85 ± 0.41 µM
Kd [3]: 4.38 ± 0.49 µM
Kd [4]: 4.5 ± 0.61 µM
Kd [5]: 31 ± 4.55 µM
Kd [6]: 7.09 ± 0.39 µM
Kd [7]: 15.7 ± 2.3 µM
Kd [8]: 15.5 ± 1.74 µM
Kd [9]: 19.9 ± 2.43 µM
Kd [10]: 6.07 ± 0.4 µM
Kd [11]: 20.3 ± 2.25 µM
Kd [12]: 9.79 ± 0.87 µM
Kd [13]: 17.4 ± 1.32 µM
Kd [14]: 6.77 ± 0.36 µM
Kd [15]: 3.48 ± 0.33 µM
Kd [16]: 6.36 ± 0.51 µM
Kd [17]: 7.26 ± 0.66 µM

CCC/C=C/C=O [trans-2-hexenal]
EAG peak amplitude ([18]; 1 mg/L in liquid paraffin): –0.024 mV
IC50 [10]: > 100 µM
Ki [10]: > 100 µM
binding affinity to FintCSP1 (in words) ([10]; wild-type FintCSP1, competitive fluorescence binding assay, classes of Ki): no FintCSP1 binding; also recorded: could not bind

CC1=CC[C@H](C(C)C)C=C1 (racemic) [α-phellandrene]
EAG peak amplitude ([18]; 10 mg/L in liquid paraffin): –0.018 mV

Cc1cccc(C(C)C)c1 [m-cymene]
EAG peak amplitude ([18]; 10 mg/L in liquid paraffin): approximately –0.034 mV
preference of F. intonsa in Y-tube olfactometer (in words) [19]: appeared to repel F. intonsa, but this result was not statistically significant

C/C1=C\CC/C(C)=C/CC(C)(C)/C=C/C1 [α-humulene]
EAG peak amplitude ([18]; 1 mg/L in liquid paraffin): –0.024 mV

CC1=CC2C(CC1)C2(C)C (single isomer, unassigned; (+)) [(+)-2-carene]
EAG peak amplitude ([18]; 1 mg/L in liquid paraffin): –0.016 mV
